From paper PMC9837764 (Nature Communications, 2023)
“And” between values parts separate entries of the source, which are not always exact repeats. Equal values may be shown once. Read-outs that look alike come from different tables or passages of the source.

Columns and labels:
[1] = tested on: Salmonella typhimurium TA 102; assay: Ames test, strain TA 102; settings: Positive Control 5 µg/plate
[2] = biological target: SARS-CoV-2 RNA polymerase, nsp12, 7, and 8 (Severe acute respiratory syndrome coronavirus 2, UniProt P0DTD1); assay: SARS-CoV-2 RNA polymerase inhibition assay (pyrophosphate luminescence); format: biochemical
[3] = tested on: SARS-CoV-2; assay: Combination of RdRp inhibitors with SARS-CoV-2 nsp14 inhibitors in infected Calu-3 cells, synergy; format: cell-based; design: EC99 mean: unit not given here; settings: for EC50: Severe acute respiratory syndrome coronavirus 2, Calu-3, read-out: EC50 mean; for EC90: Severe acute respiratory syndrome coronavirus 2, Calu-3, read-out: EC90 mean; for EC99 mean: Calu-3 cells, alone or with nsp14 inhibitor at the concentration of the label, unit not given
[4] = tested on: SARS-CoV-2; assay: Genomic and subgenomic viral RNA in infected Calu-3 cells (RT-PCR); format: cell-based
[5] = tested on: IL-6; assay: IL-6 in supernatant of SARS-CoV-2-infected human primary monocytes; format: cell-based
Experimental: (§1) Human primary monocytes were obtained after 3 h of plastic adherence of peripheral blood mononuclear cells (PBMCs). The use of primary human cell was approved by Institutional Review Board from the Oswaldo Cruz Foundation under protocol 49971421.8.0000.5248 with signed informed consent in accordance with the Hemotherapy Service of Hospital Clementino Fraga from the Federal University of Rio de Janeiro. All volunteers were de-identified. PBMCs were isolated from healthy donors by density gradient centrifugation (Ficoll-Paque, GE Healthcare). PBMCs (2.0 × 10^6 cells) were plated onto 48-well plates (NalgeNunc) in RPMI-1640 without serum for 2–4 h. Nonadherent cells were removed, and the remaining monocytes were maintained in DMEM with 5% human serum (HS; Millipore) and penicillin/streptomycin. The purity of human monocytes was above 95%, as determined by flow cytometric analysis (FACScan; Becton Dickinson) using anti-CD3 (BD Biosciences, cat # 555342, 1:40), anti-CD16 (Southern Biotech, cat # 561313, 1:20) and APC mouse IgG2a isotype (BD Biosciences, cat # 550882, 1/40) and PE mouse IgG1 isotype (BD Biosciences, 555749, 1/20).

[6] = tested on: SARS-CoV-2; assay: Yield-reduction assay, SARS-CoV-2 in Calu-3 cells (titers as PFU/mL in Vero cells)
[7] = tested on: SARS-CoV-2; assay: Cell-associated virus RNA in SARS-CoV-2-infected human primary monocytes; format: cell-based
Experimental: as §1
Total viral RNA from a culture supernatant and/or monolayers was extracted using QIAamp Viral RNA (Qiagen®) according to the manufacturer’s instructions. Quantitative RT‒PCR was performed using GoTaq® Probe qPCR and RT-qPCR Systems (Promega) in a StepOne™ Real-Time PCR System (Thermo Fisher Scientific) ABI PRISM 7500 Sequence Detection System (Applied Biosystems). Amplifications were carried out in 25 µL reaction mixtures containing 2× reaction mix buffer, […] of each primer, 10 µM of probe, and 5 µL of RNA template. Primers, probes, and cycling conditions recommended by the Centers for Disease Control and Prevention (CDC) protocol were used to detect SARS-CoV-2[52]. The standard curve method was employed for virus quantification. For reference to the cell amounts used, the housekeeping gene RNAse P (F-5′-[…] -3′, R-5′[…] -3′, P-5′-FAM-[…] -BHQ-1-3′) was amplified. The Ct values for this target were compared to those obtained for different cell amounts, 10^7 to 10^2, for calibration.

[8] = tested on: TNF-α; assay: TNF-α in supernatant of SARS-CoV-2-infected human primary monocytes; format: cell-based
Experimental: as §1

[9] = Calu-3, 10 µM, 48 h, listed as RDV
[10] = infected monocytes, drugs at 10 µM, 24 h, listed as RDV
[11] = infected Calu-3, compound alone at 10 uM

## Nc1ccc2cc3ccccc3cc2c1 [2-AA, 2-aminoanthracene, reference compound]
[1]
  Mutagenicity TA 102 +S9: +

## O=P(O)(O)OP(=O)(O)OP(=O)(O)OC[C@H]1O[C@@H](n2cnc3c(NCc4ccco4)ncnc32)[C@H](O)[C@@H]1O [801-TP, Kinetin ribose 5’-triphosphate]
[2]
  IC50: 100 ± 3 nM
  IC50 fold higher than that of GS-443902: 3 fold
[2]; Drug Concentration 0.001
  SARS-CoV-2 RNA polymerase inhibition (Fig2A source data, replicates): 4 and 6 and 8
[2]; Drug Concentration 0.01
  SARS-CoV-2 RNA polymerase inhibition (Fig2A source data, replicates): 4 and 5 (2×)
[2]; Drug Concentration 0.1
  SARS-CoV-2 RNA polymerase inhibition (Fig2A source data, replicates): 53 and 50 and 55
[2]; Drug Concentration 1
  SARS-CoV-2 RNA polymerase inhibition (Fig2A source data, replicates): 60 and 47 and 52
[2]; Drug Concentration 10
  SARS-CoV-2 RNA polymerase inhibition (Fig2A source data, replicates): 70 and 75 and 51

## COC(=O)N[C@H](C(=O)N1CCC[C@H]1c1nc(-c2ccc(-c3ccc(-c4c[nH]c([C@@H]5CCCN5C(=O)[C@@H](NC(=O)OC)C(C)C)n4)cc3)cc2)c[nH]1)C(C)C [Daclatasvir, daclatasvir]
[3]
  EC50: 700 nM
  EC90: 3800 nM

## NC(=O)c1nc(F)c[nH]c1=O [Favipiravir, favipiravir]
[3]
  EC50: 7800 nM

## N#C[C@@]1(c2ccc3c(N)ncnn23)O[C@H](COP(=O)(O)OP(=O)(O)OP(=O)(O)O)[C@@H](O)[C@H]1O [GS-443902]
[2]; Drug Concentration 0.001
  SARS-CoV-2 RNA polymerase inhibition (Fig2A source data, replicates): 3 (2×) and 5
[2]; Drug Concentration 0.01
  SARS-CoV-2 RNA polymerase inhibition (Fig2A source data, replicates): 6 and 40 and 5
[2]; Drug Concentration 0.1
  SARS-CoV-2 RNA polymerase inhibition (Fig2A source data, replicates): 65 and 63 and 80
[2]; Drug Concentration 1
  SARS-CoV-2 RNA polymerase inhibition (Fig2A source data, replicates): 90 (2×) and 53
[2]; Drug Concentration 10
  SARS-CoV-2 RNA polymerase inhibition (Fig2A source data, replicates): 99 and 90 and 75

## CC(C)OC(=O)[C@H](C)NP(=O)(OC[C@H]1O[C@@H](n2cnc3c(NCc4ccco4)ncnc32)[C@H](O)[C@@H]1O)Oc1ccccc1 (stereo partly drawn) [MB-711, Phenyl (Isopropoxy-L-alaninyl) Kinetin Riboside Phosphoramidate]
[4]
  Genomic viral RNA (Fig2B source data, replicates): 0.3 and 0.45 and 0.2
  Subgenomic viral RNA (Fig2B source data, replicates): 0.6 and 0.8 and 0.5
[5]
  IL-6 levels in the culture supernatant (Fig1E source data, per donor): 2.2 and 1.8 and 0.121 and 4.3 and 3.4 and 5.0 and 1.5 and 2.9
[6]
  Inhibition of SARS-CoV-2 infectious titers (Fig1A source data, replicates): 20 and 7 and 28 and 24 and 64 and 23 and 25 and 50 and 33 and 60 and 57 and 42 and 79 (2×) and 81
  Inhibition of SARS-CoV-2 infectious titers (Fig1B source data, replicates): 16 (2×) and 20 and 43 and 73 and 50 and 55 and 71 and 77 (2×) and 80 and 75 and 99 and 97 and 95
[7]
  Cell-associated virus RNA levels in SARS-CoV-2-infected monocytes: reduced cell-associated virus RNA levels in a concentration-dependent manner
  Cell-associated virus RNA loads, inhibition (Fig1C source data, per donor): 2 (2×) and 0 and 32 and 30 and 35 and 40 and 45 and 50
[3]
  Virus productive titers (Fig3A source data, replicates): 46000 and 30000 and 28000
  Virus productive titers (Fig3B source data, replicates): 46000 and 30000 and 45000
[8]
  TNF-α levels in the culture supernatant (Fig1D source data, per donor): 1.6 and 1.8 and 0.638 and 2.6 and 5.0 and 4.1

## c1coc(CNc2ncnc3c2ncn3C2CCCCO2)c1 (stereo not shown) [MB-906, 6-furfurylamino-9-(tetrahydropyran-2-yl)−9H-purine]
[6]; huh-7 and calu-3 cells (Supplementary Fig. 2)
  Antiviral activity, SARS-CoV-2 replication: impaired

## COC(=O)N[C@H](C(=O)N1CCC[C@H]1C(=O)Nc1ccc([C@@H]2CC[C@@H](c3ccc(NC(=O)[C@@H]4CCCN4C(=O)[C@@H](NC(=O)OC)C(C)C)cc3)N2c2ccc(C(C)(C)C)cc2)cc1)C(C)C [Ombitasvir, ombitasvir]
[3]
  EC99 mean: 18
  EC50: 400 nM
  EC90: 3300 nM

## COC(=O)N[C@H](C(=O)N1CCC[C@H]1c1nc2cc([C@H]3CC[C@H](c4cc5nc([C@@H]6CCCN6C(=O)[C@@H](NC(=O)OC)[C@@H](C)OC)[nH]c5cc4F)N3c3cc(F)c(N4CCC(c5ccc(F)cc5)CC4)c(F)c3)c(F)cc2[nH]1)[C@@H](C)OC [Pibrentasvir, pibrentasvir]
[3]
  EC99 mean: 19
  EC50: 700 nM
  EC90: 4200 nM

## Cc1nnc(C(=O)NC(C)(C)c2nc(C(=O)NCc3ccc(F)cc3)c(O)c(=O)n2C)o1 [RTG, raltegravir]
[3]
  EC50: 4800 nM
[3]; alone at 5 µM, Calu-3
  Effects on SARS-CoV-2 replication: marginal effects
[3]; infected Calu-3, RTG alone at 5uM
  Virus productive titers (Fig3A source data, replicates): 224000 and 448000

## CCC(CC)COC(=O)[C@H](C)N[P@](=O)(OC[C@H]1O[C@@](C#N)(c2ccc3c(N)ncnn23)[C@H](O)[C@@H]1O)Oc1ccccc1 [Remdesivir, remdesivir, reference compound]
[4]; [9]
  Genomic viral RNA (Fig2B source data, replicates): 0.221 and 0.22 and 0.2
  Subgenomic viral RNA (Fig2B source data, replicates): 0.07 and 0.05 and 0.09
[5]; [10]
  IL-6 levels in the culture supernatant (Fig1E source data, per donor): 2.2 and 1.5 and 3.0 and 4.2 and 2.9 and 1.1
[6]; Severe acute respiratory syndrome coronavirus 2, Calu-3
  EC50: 150 ± 30 nM
[6]; Severe acute respiratory syndrome coronavirus 2, Calu-3, 24 h
  EC50: 10 ± 3 nM
[6]; additional treatment at 24 h, Drug 0.001, Calu-3, 48 h, listed as RDV
  Inhibition of SARS-CoV-2 infectious titers (Fig1B source data, replicates): 28 and 35 and 32
[6]; additional treatment at 24 h, Drug 0.01, listed as RDV
  Inhibition of SARS-CoV-2 infectious titers (Fig1B source data, replicates): 40 and 60 and 50
[6]; additional treatment at 24 h, Drug 0.1, listed as RDV
  Inhibition of SARS-CoV-2 infectious titers (Fig1B source data, replicates): 80 and 70 and 60
[6]; additional treatment at 24 h, Drug 1
  Inhibition of SARS-CoV-2 infectious titers (Fig1B source data, replicates): 100
[6]; additional treatment at 24 h, Drug 10
  Inhibition of SARS-CoV-2 infectious titers (Fig1B source data, replicates): 100
[6]; one treatment, Drug 0.001, Calu-3, MOI 0.1, 48 h, listed as RDV
  Inhibition of SARS-CoV-2 infectious titers (Fig1A source data, replicates): 12 and 16 and 10
[6]; one treatment, Drug 0.01, listed as RDV
  Inhibition of SARS-CoV-2 infectious titers (Fig1A source data, replicates): 30 and 50 and 55
[6]; one treatment, Drug 0.1, listed as RDV
  Inhibition of SARS-CoV-2 infectious titers (Fig1A source data, replicates): 45 and 50 and 72
[6]; one treatment, Drug 1
  Inhibition of SARS-CoV-2 infectious titers (Fig1A source data, replicates): 100
[6]; one treatment, Drug 10
  Inhibition of SARS-CoV-2 infectious titers (Fig1A source data, replicates): 100
[7]; Fig. 1c
  Cell-associated virus RNA levels in SARS-CoV-2-infected monocytes: reduced cell-associated virus RNA levels in a concentration-dependent manner
[3]
  EC99 mean: 1.1
  EC50: 90 nM
  EC90: 400 nM
[8]; [10]
  TNF-α levels in the culture supernatant (Fig1D source data, per donor): 1.6 and 1.4 and 0.437 and 0.351 and 5.3 and 4.9 and 4.3 and 6.2

## CC(C)OC(=O)[C@H](C)N[P@](=O)(OC[C@H]1O[C@@H](n2ccc(=O)[nH]c2=O)[C@](C)(F)[C@@H]1O)Oc1ccccc1 [Sofosbuvir, sofosbuvir]
[3]; [11]
  Virus productive titers (Fig3A source data, replicates): 64000 and 24000 and 240000
  Virus productive titers (Fig3B source data, replicates): 64000 and 24000 and 240000

## C[C@H](Cn1cnc2c(N)ncnc21)OCP(=O)(O)O [Tenofovir, tenofovir]
[3]
  EC50: 4300 nM
[3]; [11]
  Virus productive titers (Fig3A source data, replicates): 80000 and 88000 and 5000
  Virus productive titers (Fig3B source data, replicates): 80000 and 88000 and 5000
